The values that follow come from patent EP4800013A1, “PARG INHIBITOR” (Shanghai Qilu Pharmaceutical Research and Development …, priority 2023, dated 2025).

By IC50 is commonly meant the concentration that inhibits the measured activity by half.

SMILES strings stand for the structures.

One experiment concerns KURAMOCHI cells. Nature of the experiment: Inhibition of proliferation of KURAMOCHI cells (CellTiter-Glo, intracellular ATP). The experiment is classed as cell-based. The following applies: 168 h, incubated for 7 days, read-out: IC50 against KURAMOCHI cells. Here is the method: In this experiment, the inhibitory effect of the compounds of the present disclosure on the proliferation of the cancer cell line KURAMOCHI was evaluated by measuring intracellular ATP levels using a bioluminescent assay, and the half maximal inhibitory concentration (IC50) was determined.
RPMI 1640 medium (Cat. No. 11875-093), fetal bovine serum (10099-141), and 100× Pen/Strep (15070-063) were purchased from GIBCO. CellTiter-Glo Luminescent Cell Viability Assay reagent (Cat. No. G7573) was purchased from Promega.
• 1) Day 1: KURAMOCHI cells were counted using a cell counter and seeded into a 96-well culture plate at a density of 4000 cells per well in 100 µL medium. The plate was incubated overnight in an incubator (37°C, 5% CO2). • 2) Day 2: Using a D300e digital dispenser (TECAN), 500 nL of serially diluted test compounds of the present disclosure (starting at 10 µM, a total of 9 concentrations, 1:4 dilution) were added to the cells in the culture plate. The final concentration of DMSO was 0.5%. The cell culture plate was incubated for 7 days in a cell culture incubator (37°C, 5% CO2). Control group 1 received only medium and DMSO (100% inhibition group). Control group 2 received only DMSO (0% inhibition group). The final concentration of DMSO in both groups was 0.5%. • 3) Day 9: 100 µL of CellTiter-Glo reagent was added to each well. The plate was shaken at 500 rpm for 2 minutes, centrifuged at 1000 rpm for 1 minute, and then incubated at room temperature in the dark for 10 minutes to stabilize the luminescence signal. • 4) Luminescence signals were measured using an EnVision microplate reader (PerkinElmer). • 5) Data analysis was performed using GraphPad Prism 8. The IC50 values of the compounds of the present disclosure were calculated as follows. The CTG signal values were analyzed. The average inhibition rate of control group 1 (100% inhibition group) was set as the relative inhibition rate of 100%. The average inhibition rate of control group 2 (0% inhibition group) was set as the relative inhibition rate of 0%. The CTG signal values were converted into relative inhibition rates. The inhibition percentage (inhibition%) for each concentration of the compounds of the present disclosure was calculated according to the following formula: Inhibition% = (b−x)/(b−a)*100%; [formula] • a = CTG value (highest concentration), b = CTG value (blank well), x = CTG value (test well). • IC50 was calculated using GraphPad Prism 8. • (1) The concentration and inhibition rate corresponding to each well were recorded. Statistical calculation was performed using Log10 (compound concentration). • (2) The data were input into GraphPad Prism 8 and Analysis was selected. • (3) Nonlinear regression (curve fit) was selected. • (4) Log (inhibitor) vs. response - Variable slope was selected. • (5) The calculation formula was selected, and the calculation was performed according to the following formula: Y = Bottom + (Top - Bottom) / (1 + 10 ^ ((LogIC50 - X) * HillSlope)); X: log of dose or concentration; Y: response; Top and Bottom: maximum and minimum response. • (6) The IC50 values were calculated by fitting the data. Table 16: Inhibitory effect of the compounds of the present disclosure on the proliferation of KURAMOCHI cells
Background: Cellular ATP, detected with luciferase, serves as a proxy for viable cell number.

The target in the next experiment is T1, PARG (Homo sapiens, UniProt Q86W56).
T1 construct: made in house
T1 sequence (Q86W56 whole entry): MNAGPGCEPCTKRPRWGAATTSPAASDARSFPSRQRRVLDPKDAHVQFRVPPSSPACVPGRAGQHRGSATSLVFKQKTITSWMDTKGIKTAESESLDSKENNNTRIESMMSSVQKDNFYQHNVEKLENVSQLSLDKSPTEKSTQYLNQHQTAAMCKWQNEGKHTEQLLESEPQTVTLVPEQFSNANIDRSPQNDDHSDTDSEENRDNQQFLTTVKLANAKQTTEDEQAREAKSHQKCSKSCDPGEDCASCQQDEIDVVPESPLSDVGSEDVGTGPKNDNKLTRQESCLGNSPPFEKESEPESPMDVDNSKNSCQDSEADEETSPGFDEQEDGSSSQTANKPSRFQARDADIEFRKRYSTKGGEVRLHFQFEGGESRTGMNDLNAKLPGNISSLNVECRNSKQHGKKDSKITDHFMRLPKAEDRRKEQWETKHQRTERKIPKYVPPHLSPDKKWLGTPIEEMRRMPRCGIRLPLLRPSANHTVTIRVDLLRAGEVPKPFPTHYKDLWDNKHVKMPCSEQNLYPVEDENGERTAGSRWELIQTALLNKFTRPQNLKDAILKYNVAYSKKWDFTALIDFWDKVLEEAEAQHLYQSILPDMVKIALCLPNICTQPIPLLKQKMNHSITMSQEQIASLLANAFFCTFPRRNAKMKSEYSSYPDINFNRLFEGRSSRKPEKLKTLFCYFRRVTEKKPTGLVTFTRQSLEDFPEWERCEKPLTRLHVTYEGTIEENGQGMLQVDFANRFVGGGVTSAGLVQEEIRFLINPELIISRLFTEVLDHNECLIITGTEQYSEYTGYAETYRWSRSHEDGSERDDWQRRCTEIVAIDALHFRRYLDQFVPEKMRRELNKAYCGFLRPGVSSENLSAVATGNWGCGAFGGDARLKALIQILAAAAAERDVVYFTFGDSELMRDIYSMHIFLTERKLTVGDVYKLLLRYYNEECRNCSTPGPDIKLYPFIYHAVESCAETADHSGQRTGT
Put plainly: Enzymatic inhibitory activity against PARG, HTRF assay. The following applies: HTRF; PARylated PARP1 protein as substrate; 60 minutes at room temperature; read-out: IC50 against PARG enzyme. The experiment is classed as biochemical. Here is the method:
In this experiment, the enzymatic inhibitory activity of the compounds of the present disclosure against PARG was determined using an HTRF (homogeneous time-resolved fluorescence) assay.
HTRF assay reagents were purchased from PerkinElmer (Cat. Nos. 61HISTLB and 610SAXLB). The purified protein was prepared in-house.
PARG enzyme reaction buffer: 50 mM Tris (pH 7.4), 0.1 mg/mL BSA, 3 mM EDTA, 0.4 mM EGTA, 1 mM DTT, 50 mM KCl, and 0.01% Tween 20.
• 1) Using an ultra-micro pipette, the compounds of the present disclosure were serially diluted (starting at 10 µM with 3- to 5-fold serial dilutions) and added to a 384-well reaction plate, with each concentration tested in duplicate wells. Control group 1 was added with 10 µM control compound (100% inhibition group). Control group 2 was added with DMSO (0% inhibition group). After compound addition, the 384-well plate was centrifuged at 1000 rpm for 1 minute. • 2) 2.5 µL of PARG protein was added to each well and incubated with the compounds of the present disclosure at room temperature for 15 minutes, followed by centrifugation at 1000 rpm for 1 minute. • 3) 2.5 µL of PARylated PARP1 protein was added to each well and incubated at room temperature for 60 minutes, followed by centrifugation at 1000 rpm for 1 minute. • 4) 5 µL of His-Tb & SA-XL665 HTRF assay reagents were added to each well and incubated at room temperature for 60 minutes, followed by centrifugation at 1000 rpm for 1 minute. • 5) […] were measured using a PHERAstar FSX microplate reader from BMG. • 6) Data analysis was performed using GraphPad Prism 8. The IC50 values of the compounds of the present disclosure were calculated as follows. […] The average value of duplicate wells in control group 2 (0% inhibition group) was set as the relative inhibition rate of 0%. The HTRF signal values were converted into relative inhibition rates. The IC50 values of the compounds were calculated by fitting the data to a four-parameter logistic model. Table 15: Enzymatic inhibitory activity of the compounds of the present disclosure against PARG
(In TR-FRET formats the signal depends on donor and acceptor labels being close together.)

In the case of `C[C@H]1CN(c2cc(S(=O)(=O)NC3(C)CC3)cc3c2nnn3-c2nnc(C(F)F)s2)C[C@H](C)N1` [Compound 008B], the values for the half-maximal inhibitory concentration (IC50) in the experiment with KURAMOCHI cells and at PARG were 9 nM and 9.6 nM, respectively.

For the molecule `CC(C)Oc1nc2c(N3CCN(C(=O)C(C)C)CC3)cc(S(=O)(=O)NC3(C#N)CC3)cc2n1-c1nnc(C(F)F)s1` [Compound 057L], the results for the IC50 with KURAMOCHI cells and on PARG were 8 nM and 8.6 nM, respectively.

For `CN(C)C(=O)N1CCN(c2cc(S(=O)(=O)NC3(C#N)CC3)cc3c2nc(OC2CC2)n3-c2nnc(C(F)F)s2)CC1` [Compound 057M], the IC50 was 6 nM with KURAMOCHI cells and 2.8 nM at PARG.

Regarding `CC(C)C(=O)N1CCN(c2cc(S(=O)(=O)NC3(C#N)CC3)cc3c2nc(OC2COC2)n3-c2nnc(C(F)F)s2)CC1` [Compound 057N], the IC50 with KURAMOCHI cells amounted to 9 nM; at PARG it was 8.3 nM.

For `CC(C)C(=O)N1CCN(c2cc(S(=O)(=O)NC3(C#N)CC3)cc3c2nc(OC2CC2)n3-c2nnc(C(F)F)s2)CC1` [Compound 057Q], the results for the IC50 in the experiment on KURAMOCHI cells and on PARG were 7 nM and 5.1 nM, respectively.

As to `CN(C)C(=O)N1CCC(c2cc(S(=O)(=O)NC3(C#N)CC3)cc3c2ncn3-c2nnc(C(F)F)s2)CC1` [Compound 059C], the results for the IC50 in the experiment on KURAMOCHI cells and on PARG were 20 nM and 6.5 nM, respectively.

Take `CC(C)C(=O)N1CCC(c2cc(S(=O)(=O)NC3(C#N)CC3)cc3c2ncn3-c2nnc(C(F)F)s2)CC1` [Compound 059D]: the IC50 with KURAMOCHI cells was 40 nM; on PARG, 28.8 nM.

For `C[C@H]1CN(c2cc(S(=O)(=O)NC3(CF)CC3)cc3c2c2nccnc2n3-c2nnc(C(F)F)s2)C[C@H](C)N1` [Compound 065I], the 50% inhibitory concentration (IC50) came to 5 nM with KURAMOCHI cells and 1.8 nM at PARG.

`[2H]C([2H])([2H])C1(NS(=O)(=O)c2cc(N3C[C@H](C)N[C@@H](C)C3)c3c4nccnc4n(-c4nnc(C(F)F)s4)c3c2)CC1` [Compound 065J]: the IC50 in the experiment on KURAMOCHI cells is 7 nM; on PARG, 2.4 nM.

Regarding `C[C@H]1CN(c2cc(S(=O)(=O)NC3(C#N)CC3)cc3c2c2nccnc2n3-c2nnc(C(F)F)s2)C[C@H](C)N1` [Compound 065K], the IC50 in the experiment with KURAMOCHI cells stood at 22 nM; on PARG, 6.3 nM.

Consider `C[C@H]1CN(c2cc(S(=O)(=O)NC3(C)COC3)cc3c2c2nccnc2n3-c2nnc(C(F)F)s2)C[C@H](C)N1` [Compound 065L], for which the half-inhibitory concentration (IC50) came out at 18 nM in the experiment with KURAMOCHI cells and 5.5 nM at PARG.

`C[C@H]1CN(c2cc(S(=O)(=O)NC3(C#N)CC3)cc3c2n2ncnc2n3-c2nnc(C(F)F)s2)C[C@H](C)N1` [Compound 065N]: the figures for the 50% inhibitory concentration (IC50) in the experiment on KURAMOCHI cells and at PARG were 9 nM and 7.3 nM, respectively.

For `[2H]C([2H])([2H])C1(NS(=O)(=O)c2cc(N3C[C@H](C)N[C@@H](C)C3)c3c(c2)n(-c2nnc(C(F)F)s2)c2ncnn32)CC1` [Compound 065O], the IC50 was 3 nM in the experiment on KURAMOCHI cells and 3.1 nM on PARG.

On to `C[C@H]1CN(c2cc(S(=O)(=O)NC3(C)COC3)cc3c2n2ncnc2n3-c2nnc(C(F)F)s2)C[C@H](C)N1` [Compound 065P], for which the results for the 50% inhibitory concentration (IC50) in the experiment on KURAMOCHI cells and at PARG were 7 nM and 5.8 nM, respectively.

Take `C[C@H]1CN(c2cc(S(=O)(=O)NC3(C)CC3)cc3c2n2nc(C(C)(C)O)nc2n3-c2nnc(C(F)F)s2)C[C@H](C)N1` [Compound 065T]: the IC50 was 13 nM in the experiment on KURAMOCHI cells and 1.5 nM on PARG.

`COCc1nc2n(-c3nnc(C(F)F)s3)c3cc(S(=O)(=O)NC4(C)CC4)cc(N4C[C@H](C)N[C@@H](C)C4)c3n2n1` [Compound 065U]: the IC50 worked out at 2 nM in the experiment with KURAMOCHI cells and 0.5 nM at PARG.

For the molecule `C[C@H]1CN(c2cc(S(=O)(=O)NC3(C)CC3)cc3c2n2nc(Cl)nc2n3-c2nnc(C(F)F)s2)C[C@H](C)N1` [Compound 065X], the IC50 is 4 nM with KURAMOCHI cells and 0.5 nM at PARG.

For `CC(C)c1nc2n(-c3nnc(C(F)F)s3)c3cc(S(=O)(=O)NC4(C)CC4)cc(N4C[C@H](C)N[C@@H](C)C4)c3n2n1` [Compound 065Y], the IC50 with KURAMOCHI cells is 6 nM; on PARG, 0.8 nM.

Take `C[C@H]1CN(c2cc(S(=O)(=O)NC3(C)CC3)cc3c2n2nc(C4CC4)nc2n3-c2nnc(C(F)F)s2)C[C@H](C)N1` [Compound 065Z]: the IC50 was determined as 4 nM with KURAMOCHI cells and 1 nM on PARG.

Turning to `C=CCn1c(=O)n(-c2nnc(C(F)F)s2)c2cc(S(=O)(=O)NC3(C#N)CC3)cc(N3CCN(C(=O)N4CCC4)CC3)c21` [Compound 067B], the 50% inhibitory concentration (IC50) with KURAMOCHI cells turned out to be 15 nM; at PARG, 6.9 nM.

For `C=CCn1c(=O)n(-c2nnc(C(F)F)s2)c2cc(S(=O)(=O)NC3(C#N)CC3)cc(N3CCN(C(=O)N4CCOCC4)CC3)c21` [Compound 067G], the IC50 with KURAMOCHI cells was found to be 26 nM; at PARG it was 8.7 nM.

For `C=CCn1c(=O)n(-c2nnc(C(F)F)s2)c2cc(S(=O)(=O)NC3(C#N)CC3)cc(N3CCN(c4nccn4C)CC3)c21` [Compound 067J], the IC50 stood at 21 nM in the experiment with KURAMOCHI cells and 7.8 nM at PARG.

For `[2H]C([2H])([2H])OC(C)(C)C(=O)N1CCN(c2cc(S(=O)(=O)NC3(C#N)CC3)cc3c2n(CC=C)c(=O)n3-c2nnc(C(F)F)s2)CC1` [Compound 067LD], the half-maximal inhibitory concentration (IC50) in the experiment with KURAMOCHI cells came to 5 nM; on PARG, 2.2 nM.

Turning to `C=CCn1c(=O)n(-c2nnc(C(F)F)s2)c2cc(S(=O)(=O)NC3(C#N)CC3)cc(N3CCN(C(=O)C(C)(C)OC)CC3)c21` [Compound 067L], the IC50 was 4 nM in the experiment on KURAMOCHI cells and 4.9 nM at PARG.

Turning to `[2H]C([2H])([2H])OC1(C(=O)N2CCN(c3cc(S(=O)(=O)NC4(C#N)CC4)cc4c3n(CC=C)c(=O)n4-c3nnc(C(F)F)s3)CC2)CC1` [Compound 067ND], the IC50 in the experiment with KURAMOCHI cells is 3 nM; on PARG, 2.3 nM.

For the molecule `C=CCn1c(=O)n(-c2nnc(C(F)F)s2)c2cc(S(=O)(=O)NC3(C#N)CC3)cc(N3CCN(C(=O)C4(OC)CC4)CC3)c21` [Compound 067N], the concentration for half-maximal inhibition (IC50) worked out at 3 nM with KURAMOCHI cells and 3.1 nM on PARG.

For the molecule `C=CCn1c(=O)n(-c2nnc(C(F)F)s2)c2cc(S(=O)(=O)NC3(C#N)CC3)cc(N3CCN(C(=O)C(C)(C)N)CC3)c21` [Compound 067P], the concentration for half-maximal inhibition (IC50) in the experiment on KURAMOCHI cells worked out at 74 nM; on PARG, 5.2 nM.

As for `C=CCn1c(=O)n(-c2nnc(C(F)F)s2)c2cc(S(=O)(=O)NC3(C#N)CC3)cc(N3CCN(C(=O)C(C)(C)NC)CC3)c21` [Compound 067Q], the 50% inhibitory concentration (IC50) worked out at 13 nM with KURAMOCHI cells and 5 nM at PARG.

For the molecule `C=C[C@H]1CN(c2cc(S(=O)(=O)NC3(C)CC3)cc3c2cnn3-c2nnc(C(F)F)s2)C[C@H](C=C)N1` [Compound 078C], in the experiment on KURAMOCHI cells, the IC50 was determined as 15 nM.
